# In US20250018046A1, “COMPOUNDS FOR TARGETING DEGRADATION OF IRAK4 PROTEINS” (BIOGEN MA INC, priority 2021, published 2025):
# Biological target: T1, IRAK4 (Homo sapiens, UniProt Q9NWZ3)
# T1 construct: knocking-in a HiBiT fusion tag into the C-terminal of the IRAK4 gene in 293T cells; host or cells: 293T cells, knock-in of HiBiT at the endogenous IRAK4 locus
# T1 sequence (Q9NWZ3 1-460): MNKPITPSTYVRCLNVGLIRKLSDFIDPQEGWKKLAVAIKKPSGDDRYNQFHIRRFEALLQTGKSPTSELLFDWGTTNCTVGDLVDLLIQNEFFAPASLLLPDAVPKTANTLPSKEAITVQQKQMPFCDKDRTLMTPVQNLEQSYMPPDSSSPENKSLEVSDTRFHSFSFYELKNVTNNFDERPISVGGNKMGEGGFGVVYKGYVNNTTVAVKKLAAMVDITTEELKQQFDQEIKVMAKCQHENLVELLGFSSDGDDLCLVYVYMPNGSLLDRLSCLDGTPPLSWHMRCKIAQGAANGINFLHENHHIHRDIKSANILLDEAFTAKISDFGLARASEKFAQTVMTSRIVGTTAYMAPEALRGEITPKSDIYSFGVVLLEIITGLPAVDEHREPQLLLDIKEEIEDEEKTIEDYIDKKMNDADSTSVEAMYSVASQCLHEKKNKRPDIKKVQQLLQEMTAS
# Assay: IRAK4 degradation assay using the HiBiT Method
# Format: cell-based
# Conditions: 293T cells expressing HiBiT-tagged IRAK4; 6-hour incubation; Nano-Glo HiBiT Lytic Assay luminescence
# Description: Selected compounds were tested in an IRAK4 degradation assay using the HiBiT Method.
# Phenol red-free Dulbecco's modified Eagle medium (DMEM) and fetal bovine serum (FBS) were purchased from Gibco (Grand Island, NY, USA). The Nano-Glo© HiBiT Lytic Assay System was purchased from Promega (Madison, WI, USA). Cell culture flasks and 384-well microplates were acquired from VWR (Radnor, PA, USA). The 293T cell line was engineered by knocking-in a HiBiT fusion tag into the C-terminal of the IRAK4 gene in 293T cells (Synthego, Redwood City, CA, USA).
# IRAK4 degradation was measured via the quantification of luminescent signals using the Nano-Glo© HiBiT Lytic Assay kit. Test compounds were added to 384-well plates in duplicate using an 11-point half-log dilution series, with the highest dose set at 10 mM. 293T cells expressing HiBiT-tagged IRAK4 were then added into 384-well plates at a cell density of 10,000 cells per well. The plates were kept at 37° C. with 5% CO2 for 6 hours. Cells that were treated only with DMSO served as the negative control; wells that contained only assay media served as the background control. After the 6-hour incubation, Nano-Glo® HiBiT Lytic Assay reagents were added to the cells. Luminescence was acquired using an EnVision® Multilabel Reader (PerkinElmer, Santa Clara, CA, USA).
row,DC50,Structure (SMILES)
1,10 to 100 nM,"CC(C)Oc1cc2nc(C3CCN(C(=O)CN4CCC(c5ccc(NC6CCC(=O)NC6=O)cc5)CC4)CC3)cn2cc1NC(=O)c1cccc(C(F)(F)F)n1 (stereo not drawn) [Example 9, N-[2-[1-[2-[4-[4-[(2,6-dioxo-3-piperidyl)amino]phenyl]-1-piperidyl]acetyl]-4-piperidyl]-7-isopropoxy-imidazo[1,2-a]pyridin-6-yl]-6-(trifluoromethyl)pyridine-2-carboxamide]"
2,500 to 1000 nM,"CC(C)Oc1cc2nc([C@H]3CC[C@H](CN(C)C4CCN(c5ccc6c(c5)n(C)c(=O)n6C5CCC(=O)NC5=O)CC4)CC3)cn2cc1NC(=O)c1cccc(C(F)(F)F)n1 (stereo partly drawn) [Example 45, N-[2-[4-[[[1-[1-(2,6-dioxo-3-piperidyl)-3-methyl-2-oxo-benzimidazol-5-yl]-4-piperidyl]-methyl-amino]methyl]cyclohexyl]-7-isopropoxy-imidazo[1,2-a]pyridin-6-yl]-6-(trifluoromethyl)pyridine-2-carboxamide]"
3,100 to 500 nM,"CC(C)Oc1cc2nc(C3CCN(CCC(=O)N4CCN(c5ccc(OC6CCC(=O)NC6=O)cc5)CC4)CC3)cn2cc1NC(=O)c1cccc(C(F)(F)F)n1 (stereo not drawn) [Example 33, N-[2-[1-[3-[4-[4-[(2,6-dioxo-3-piperidyl)oxy]phenyl]piperazin-1-yl]-3-oxo-propyl]-4-piperidyl]-7-isopropoxy-imidazo[1,2-a]pyridin-6-yl]-6-(trifluoromethyl)pyridine-2-carboxamide]"
4,100 to 500 nM,"CC(C)Oc1cc2nc(C3CCN(C(=O)CN4CCN(c5ccc(NC6CCC(=O)NC6=O)cc5)CC4)CC3)cn2cc1NC(=O)c1cccc(C(F)(F)F)n1 (stereo not drawn) [Example 10, N-[2-[1-[2-[4-[4-[(2,6-dioxo-3-piperidyl)amino]phenyl]piperazin-1-yl]acetyl]-4-piperidyl]-7-isopropoxy-imidazo[1,2-a]pyridin-6-yl]-6-(trifluoromethyl)pyridine-2-carboxamide]"
5,100 to 500 nM,"CC(C)Oc1cc2nc(C3CN(C(=O)CN4CCC(c5ccc(C6CCC(=O)NC6=O)cc5)CC4)C3)cn2cc1NC(=O)c1cccc(C(F)(F)F)n1 (stereo not drawn) [Example 77, N-[2-[1-[2-[4-[4-(2,6-dioxo-3-piperidyl)phenyl]-1-piperidyl]acetyl]azetidin-3-yl]-7-isopropoxy-imidazo[1,2-a]pyridin-6-yl]-6-(trifluoromethyl)pyridine-2-carboxamide]"
6,10 to 100 nM,"CC(C)Oc1cc2nc(C3CCN(CC(=O)N4CCC(c5ccc(OC6CCC(=O)NC6=O)cc5)CC4)CC3)cn2cc1NC(=O)c1cccc(C(F)(F)F)n1 (stereo not drawn) [Example 21, N-[2-[1-[2-[4-[4-[(2,6-dioxo-3-piperidyl)oxy]phenyl]-1-piperidyl]-2-oxo-ethyl]-4-piperidyl]-7-isopropoxy-imidazo[1,2-a]pyridin-6-yl]-6-(trifluoromethyl)pyridine-2-carboxamide]"
7,10 to 100 nM,"CC(C)Oc1cc2nc(C3CCN(CC(=O)N4CCC(c5ccc(C6CCC(=O)NC6=O)cc5)CC4)CC3)cn2cc1NC(=O)c1cccc(C(F)(F)F)n1 (stereo not drawn) [Example 29, N-[2-[1-[2-[4-[4-(2,6-dioxo-3-piperidyl)phenyl]-1-piperidyl]-2-oxo-ethyl]-4-piperidyl]-7-isopropoxy-imidazo[1,2-a]pyridin-6-yl]-6-(trifluoromethyl)pyridine-2-carboxamide]"
8,100 to 500 nM,"CC(C)Oc1cc2nc(C3CCN(C(=O)CN4CCN(c5ccc(OC6CCC(=O)NC6=O)cc5)CC4)CC3)cn2cc1NC(=O)c1cccc(C(F)(F)F)n1 (stereo not drawn) [Example 6, N-[2-[1-[2-[4-[4-[(2,6-dioxo-3-piperidyl)oxy]phenyl]piperazin-1-yl]acetyl]-4-piperidyl]-7-isopropoxy-imidazo[1,2-a]pyridin-6-yl]-6-(trifluoromethyl)pyridine-2-carboxamide]"

# Continued, compound first:
row,Structure (SMILES),DC50
1,"Cc1cc(-c2nc(C(=O)Nc3cn4cc(C5CCN(CC(=O)N6CCC(c7ccc(NC8CCC(=O)NC8=O)cc7)CC6)CC5)nc4cc3OC(C)C)co2)ccn1 (stereo not drawn) [Example 58, N-(2-(1-(2-(4-(4-((2,6-dioxopiperidin-3-yl)amino)phenyl)piperidin-1-yl)-2-oxoethyl)piperidin-4-yl)-7-isopropoxyimidazo[1,2-a]pyridin-6-yl)-2-(2-methylpyridin-4-yl)oxazole-4-carboxamide]",10 to 100 nM
2,"CC(C)Oc1cc2nc([C@H](Cc3ccccc3)NC(=O)CN3CCC(c4ccc(C5CCC(=O)NC5=O)cc4)CC3)cn2cc1NC(=O)c1cccc(C(F)(F)F)n1 (stereo partly drawn) [Example 73, N-[2-[(1S)-1-[[2-[4-[4-(2,6-dioxo-3-piperidyl)phenyl]-1-piperidyl]acetyl]amino]-2-phenyl-ethyl]-7-isopropoxy-imidazo[1,2-a]pyridin-6-yl]-6-(trifluoromethyl)pyridine-2-carboxamide]",100 to 500 nM
3,"CC(C)Oc1cc2nc(C3CCN(CC(=O)N4CCC(c5ccc(NC6CCC(=O)NC6=O)cc5)CC4)CC3)cn2cc1NC(=O)c1cccc(C(F)F)c1 (stereo not drawn) [Example 61, 3-(difluoromethyl)-N-(2-(1-(2-(4-(4-((2,6-dioxopiperidin-3-yl)amino)phenyl)piperidin-1-yl)-2-oxoethyl)piperidin-4-yl)-7-isopropoxyimidazo[1,2-a]pyridin-6-yl)benzamide]",10 to 100 nM
4,"CC(C)Oc1cc2nc(C3CCN(CCC(=O)N4CCC(c5ccc(NC6CCC(=O)NC6=O)cc5)CC4)CC3)cn2cc1NC(=O)c1cccc(C(F)(F)F)n1 (stereo not drawn) [Example 30, N-[2-[1-[3-[4-[4-[(2,6-dioxo-3-piperidyl)amino]phenyl]-1-piperidyl]-3-oxo-propyl]-4-piperidyl]-7-isopropoxy-imidazo[1,2-a]pyridin-6-yl]-6-(trifluoromethyl)pyridine-2-carboxamide]",100 to 500 nM
5,"CC(C)Oc1cc2nc(C3CCN(CCC(=O)N4CCC(c5ccc(C6CCC(=O)NC6=O)cc5)CC4)CC3)cn2cc1NC(=O)c1cccc(C(F)(F)F)n1 (stereo not drawn) [Example 32, N-[2-[1-[3-[4-[4-(2,6-dioxo-3-piperidyl)phenyl]-1-piperidyl]-3-oxo-propyl]-4-piperidyl]-7-isopropoxy-imidazo[1,2-a]pyridin-6-yl]-6-(trifluoromethyl)pyridine-2-carboxamide]",100 to 500 nM
6,"CC(C)Oc1cc2nc(C3CCN(C(=O)CN4CCC(c5cccc(NC6CCC(=O)NC6=O)c5F)CC4)CC3)cn2cc1NC(=O)c1cccc(C(F)(F)F)n1 (stereo not drawn) [Example 2, N-[2-[1-[2-[4-[3-[(2,6-dioxo-3-piperidyl)amino]-2-fluoro-phenyl]-1-piperidyl]acetyl]-4-piperidyl]-7-isopropoxy-imidazo[1,2-a]pyridin-6-yl]-6-(trifluoromethyl)pyridine-2-carboxamide]",10 to 100 nM
7,"CC(C)Oc1cc2nc(C3CCN(C(=O)CN4CCC(c5ccc(C6CCC(=O)NC6=O)cc5)CC4)CC3)cn2cc1NC(=O)c1cccc(C(F)(F)F)n1 (stereo not drawn) [Example 4, N-[2-[1-[2-[4-[4-(2,6-dioxo-3-piperidyl)phenyl]-1-piperidyl]acetyl]-4-piperidyl]-7-isopropoxy-imidazo[1,2-a]pyridin-6-yl]-6-(trifluoromethyl)pyridine-2-carboxamide]",100 to 500 nM
8,"CC(C)Oc1cc2nc(C3CCN(CC(=O)N4CCC(c5ccc(NC6CCC(=O)NC6=O)cc5)CC4)CC3)cn2cc1NC(=O)c1cnn2cccnc12 (stereo not drawn) [Example 57, N-(2-(1-(2-(4-(4-((2,6-dioxopiperidin-3-yl)amino)phenyl)piperidin-1-yl)-2-oxoethyl)piperidin-4-yl)-7-isopropoxyimidazo[1,2-a]pyridin-6-yl)pyrazolo[1,5-a]pyrimidine-3-carboxamide]",< 10 nM
9,"CC(C)Oc1cc2nc(C3CCN(CC(=O)N4CCC(c5ccc(NC6CCC(=O)NC6=O)cc5F)CC4)CC3)cn2cc1NC(=O)c1cccc(C(F)(F)F)n1 (stereo not drawn) [Example 24, N-[2-[1-[2-[4-[4-[(2,6-dioxo-3-piperidyl)amino]-2-fluoro-phenyl]-1-piperidyl]-2-oxo-ethyl]-4-piperidyl]-7-isopropoxy-imidazo[1,2-a]pyridin-6-yl]-6-(trifluoromethyl)pyridine-2-carboxamide]",10 to 100 nM
10,"CC(C)Oc1cc2nc(C3CCN(CC(=O)N4CCC(c5ccc(C6(F)CCC(=O)NC6=O)cc5)CC4)CC3)cn2cc1NC(=O)c1cccc(C(F)(F)F)n1 (stereo not drawn) [Example 12, N-[2-[1-[2-[4-[4-(3-fluoro-2,6-dioxo-3-piperidyl)phenyl]-1-piperidyl]-2-oxo-ethyl]-4-piperidyl]-7-isopropoxy-imidazo[1,2-a]pyridin-6-yl]-6-(trifluoromethyl)pyridine-2-carboxamide]",100 to 500 nM
